In patent US20080261994A1, “CYCLOPROPANE COMPOUNDS AND PHARMACEUTICAL USE THEREOF” (Japan Tobacco Inc., priority 2003, published 2008):
Like-named read-outs stand apart in the source and are kept apart here.

What was measured:
Assay type in all cases: biochemical
aggrecanase-1 = molecular target: T1, aggrecanase-1 (Homo sapiens, UniProt O75173); assay: Aggrecanase-1 inhibitory action (Particle Assay, GAG release from aggrecan-containing polyacrylamide particles)
T1 sequence (O75173 213-837): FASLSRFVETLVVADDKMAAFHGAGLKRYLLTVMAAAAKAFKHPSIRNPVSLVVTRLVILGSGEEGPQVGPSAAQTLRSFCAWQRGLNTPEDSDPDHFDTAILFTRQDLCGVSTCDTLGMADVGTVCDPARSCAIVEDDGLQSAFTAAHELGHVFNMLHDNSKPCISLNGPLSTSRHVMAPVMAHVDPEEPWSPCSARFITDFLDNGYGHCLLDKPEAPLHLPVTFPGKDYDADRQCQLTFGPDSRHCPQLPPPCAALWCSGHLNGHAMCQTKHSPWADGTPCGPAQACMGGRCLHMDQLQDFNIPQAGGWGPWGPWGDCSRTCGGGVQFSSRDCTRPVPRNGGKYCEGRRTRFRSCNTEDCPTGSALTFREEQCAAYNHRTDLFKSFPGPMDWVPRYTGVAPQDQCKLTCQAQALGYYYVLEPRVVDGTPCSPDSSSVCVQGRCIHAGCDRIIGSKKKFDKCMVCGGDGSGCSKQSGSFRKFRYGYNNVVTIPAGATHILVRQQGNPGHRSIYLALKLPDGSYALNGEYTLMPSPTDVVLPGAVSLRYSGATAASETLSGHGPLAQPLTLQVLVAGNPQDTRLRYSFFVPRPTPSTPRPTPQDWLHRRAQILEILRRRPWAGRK
How it was run: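 Readout was dimethylmethylene blue absorbance (595 nm) of glycosaminoglycan liberated into supernatant, calibrated with whale chondroitin sulfate. Substrate was aggrecan in polyacrylamide particles, digested 15 h at 37° C in Tris-HCl; TC50 (μM) derived from inhibition relative to no-enzyme and no-inhibitor controls.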

MMP-1 = molecular target: T2, MMP-1 (Homo sapiens, UniProt P03956); assay: MMP-1 inhibitory action (Type I collagen Activity Measurement kit, FITC-labeled collagen type I)
T2 sequence (P03956 100-469): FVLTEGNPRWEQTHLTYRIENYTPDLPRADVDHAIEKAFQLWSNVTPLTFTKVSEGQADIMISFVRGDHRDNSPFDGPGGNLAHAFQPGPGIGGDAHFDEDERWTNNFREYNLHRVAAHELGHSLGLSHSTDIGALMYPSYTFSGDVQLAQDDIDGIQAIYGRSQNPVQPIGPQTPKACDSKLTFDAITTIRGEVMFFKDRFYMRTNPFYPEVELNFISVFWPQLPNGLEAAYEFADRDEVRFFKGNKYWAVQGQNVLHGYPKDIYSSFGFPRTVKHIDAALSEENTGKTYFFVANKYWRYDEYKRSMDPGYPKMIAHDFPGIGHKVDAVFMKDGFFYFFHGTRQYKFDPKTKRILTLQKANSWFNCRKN

Recombinant Human MMP-13 = molecular target: T3, Recombinant Human MMP-13 (Homo sapiens, UniProt P45452); assay: MMP-13 inhibitory activity (MMP-13 specific fluorescent substrate with quencher)
T3 construct: purchased R&D systems 511-MM
How it was run: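 IC50 (μM) derived from % inhibition, normalised to wells without enzyme and without inhibitor, fluorescence read at 325/405 nm. Enzyme and compound preceded addition of the quenched 7-MCA…DPA substrate; Tris-HCl buffer, 25 °C for 1 h, acetic-acid stop.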

[1] = Experimental Example 1, read-out: IC50 AG1
[2] = Experimental Example 2, read-out: IC50 MMP1
[3] = Experimental Example 3, read-out: IC50 MMP13
[4] = aggrecanase-1 inhibitory action, read-out: IC50 AG1 (Experimental Example 1)
[5] = MMP-1 inhibitory action, FITC-labeled collagen type I, 37° C. for 3 hr, read-out: IC50 MMP1 (Experimental Example 2)
[6] = Recombinant Human MMP-13, fluorescent substrate, 25° C. for 1 h, read-out: IC50 MMP13 (Experimental Example 3)

SMILES | IC50 (aggrecanase-1; [1]) [nM] | IC50 (MMP-1; [2]) [nM] | IC50 (Recombinant Human MMP-13; [3]) [nM] | IC50 (aggrecanase-1; [4]) [nM] | IC50 (MMP-1; [5]) [nM] | IC50 (Recombinant Human MMP-13; [6]) [nM]
CC1[C@H](c2ccccc2)[C@]1(NS(=O)(=O)c1ccc2c(c1)Cc1cc(Cl)ccc1-2)C(=O)O (stereo partly drawn) [Example 2-569] | < 100 | < 1000 | < 100 |  |  | 
C[C@]1(c2ccccc2)C[C@@]1(NS(=O)(=O)c1ccc(-c2ccc(O)cc2)s1)C(=O)O [Example 2-582] | < 1000 | ≥ 1000 | < 1000 |  |  | 
O=C(O)C1(NS(=O)(=O)c2ccc(-c3ccc(Cl)cc3)s2)C2CCCc3ccccc3C21 (stereo not drawn) [Example 2-8, (1R*,1aS*,8bS*)-1-[5-(4-chloro-phenyl)thiophene-2-sulfonylamino]-1,1a,2,3,4,8b-hexahydrobenzo[a]cyclopropane[c]cyclohepten-1-carboxylic acid] |  |  |  | < 100 | ≥ 1000 | < 100
CN1CCN(C(=O)OCC2(c3ccccc3)CC2(NS(=O)(=O)c2ccc(-c3cc(C(F)(F)F)on3)s2)C(=O)O)CC1 (stereo not drawn) [Example 2-334] | < 1000 | ≥ 1000 | < 1000 |  |  | 
CN(C)C(=O)OCC1(c2ccccc2)CC1(NS(=O)(=O)c1ccc(-c2cc(C(F)(F)F)on2)s1)C(=O)O (stereo not drawn) [Example 2-320] | < 1000 | ≥ 1000 | < 1000 |  |  | 
CC1[C@H](c2ccccc2)[C@]1(NS(=O)(=O)c1ccc(-c2cn(C)cn2)s1)C(=O)O (stereo partly drawn) [Example 2-450] | < 1000 | ≥ 10000 | < 1000 |  |  | 
O=C(NCC1(c2ccccc2)CC1(NS(=O)(=O)c1ccc(-c2ccc(Cl)cc2)s1)C(=O)O)C1CC1 (stereo not drawn) [Example 2-379] | < 1000 | ≥ 1000 | < 1000 |  |  | 
Cc1cnn(-c2ccc(S(=O)(=O)N[C@@]3(C(=O)O)C[C@@H]3c3ccccc3)cn2)c1 [Example 2-481] | ≥ 1000 | ≥ 10000 | < 100 |  |  | 
CN1CCN(CC2(c3ccccc3)CC2(NS(=O)(=O)c2ccc(-c3cc(C(F)(F)F)on3)s2)C(=O)O)CC1 (stereo not drawn) [Example 2-342] | < 1000 | ≥ 1000 | ≥ 1000 |  |  | 
CC1[C@H](c2ccccc2)[C@]1(NS(=O)(=O)c1ccc(-n2cccn2)s1)C(=O)O (stereo partly drawn) [Example 2-542] | < 1000 | ≥ 1000 | < 100 |  |  | 
Cn1cc(-c2ccc(S(=O)(=O)N[C@@]3(C(=O)O)C[C@@H]3c3ccccc3)s2)cn1 [Example 2-387] | ≥ 1000 | ≥ 10000 | < 1000 |  |  | 
CC1[C@H](c2ccccc2)[C@]1(NS(=O)(=O)c1ccc(-c2cc(C(F)F)no2)s1)C(=O)O (stereo partly drawn) [Example 2-354] | < 100 | ≥ 1000 | < 1000 |  |  | 
CCOC(=O)NCC1(c2ccccc2)CC1(NS(=O)(=O)c1ccc(-c2ccc(Cl)cc2)s1)C(=O)O (stereo not drawn) [Example 2-384] | < 1000 | ≥ 10000 | < 100 |  |  | 
O=C(NC1CCCC1)c1ccc(S(=O)(=O)NC2(C(=O)O)CC2c2ccccc2)s1 (stereo not drawn) [Example 2-95] |  |  |  | ≥ 10000 | ≥ 10000 | ≥ 10000
O=C(O)[C@@]1(NS(=O)(=O)c2ccc(-c3ccc(Cl)cc3)s2)C[C@H]1c1cccc(Br)c1 [Example 2-150] |  |  |  | < 1000 | ≥ 1000 | < 1000
COC(=O)Cc1cccc(C2CC2(NS(=O)(=O)c2ccc(-c3cc(C(F)(F)F)on3)s2)C(=O)O)c1 (stereo not drawn) [Example 2-219] |  |  |  | < 1000 | ≥ 1000 | < 100
CC1[C@H](c2ccccc2)[C@]1(NS(=O)(=O)c1ccc(-c2cc(C(F)F)on2)s1)C(=O)O (stereo partly drawn) [Example 2-353] | < 100 | < 1000 | < 100 |  |  | 
O=C(Nc1ccc(S(=O)(=O)N[C@@]2(C(=O)O)C[C@@H]2c2ccccc2)cc1)c1ccccc1 [Example 2-473] | ≥ 1000 | ≥ 10000 | ≥ 1000 |  |  | 
COCCCC1(c2ccccc2)CC1(NS(=O)(=O)c1ccc(-c2cc(C(F)(F)F)on2)s1)C(=O)O (stereo not drawn) [Example 2-588] | < 100 | < 1000 | < 1000 |  |  | 
